# Assay results published in ChEMBL document CHEMBL1131296 (J Med Chem, 1998).
# How the values were obtained:
# [1] = target: T1, Adrenergic receptor alpha-2 (Rattus norvegicus, UniProt P22086+P19328+P22909); assay: Binding affinity at native Alpha-2 adrenergic receptor in rat cerebral cortex by [3H]rauwolscine displacement.; assay type: tissue-based
# T1 sequence (P22086 whole entry): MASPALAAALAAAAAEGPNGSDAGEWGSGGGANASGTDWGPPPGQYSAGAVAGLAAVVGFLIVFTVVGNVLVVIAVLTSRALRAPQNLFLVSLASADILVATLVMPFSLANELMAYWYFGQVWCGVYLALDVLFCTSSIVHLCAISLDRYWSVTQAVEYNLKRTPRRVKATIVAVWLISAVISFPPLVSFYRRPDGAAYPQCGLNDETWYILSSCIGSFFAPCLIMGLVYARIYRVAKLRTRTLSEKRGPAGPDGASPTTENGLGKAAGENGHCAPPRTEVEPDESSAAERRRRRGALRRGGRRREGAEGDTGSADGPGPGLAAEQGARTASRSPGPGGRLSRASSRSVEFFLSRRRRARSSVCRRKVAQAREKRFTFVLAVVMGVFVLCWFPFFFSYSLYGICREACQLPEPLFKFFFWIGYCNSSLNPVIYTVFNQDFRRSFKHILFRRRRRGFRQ
# T1 sequence (P19328 whole entry): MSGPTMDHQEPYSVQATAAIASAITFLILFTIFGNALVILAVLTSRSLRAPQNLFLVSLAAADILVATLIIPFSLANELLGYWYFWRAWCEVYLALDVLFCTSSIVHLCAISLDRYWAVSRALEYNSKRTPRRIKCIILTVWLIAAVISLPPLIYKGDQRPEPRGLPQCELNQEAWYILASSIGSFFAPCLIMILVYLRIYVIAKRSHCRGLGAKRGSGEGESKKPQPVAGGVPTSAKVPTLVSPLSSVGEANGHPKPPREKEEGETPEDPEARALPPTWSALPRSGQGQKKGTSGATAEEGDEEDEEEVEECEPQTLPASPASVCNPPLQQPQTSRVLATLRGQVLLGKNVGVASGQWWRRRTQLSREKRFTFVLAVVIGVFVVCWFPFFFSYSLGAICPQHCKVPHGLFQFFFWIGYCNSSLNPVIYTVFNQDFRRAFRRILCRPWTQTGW
# T1 sequence (P22909 whole entry): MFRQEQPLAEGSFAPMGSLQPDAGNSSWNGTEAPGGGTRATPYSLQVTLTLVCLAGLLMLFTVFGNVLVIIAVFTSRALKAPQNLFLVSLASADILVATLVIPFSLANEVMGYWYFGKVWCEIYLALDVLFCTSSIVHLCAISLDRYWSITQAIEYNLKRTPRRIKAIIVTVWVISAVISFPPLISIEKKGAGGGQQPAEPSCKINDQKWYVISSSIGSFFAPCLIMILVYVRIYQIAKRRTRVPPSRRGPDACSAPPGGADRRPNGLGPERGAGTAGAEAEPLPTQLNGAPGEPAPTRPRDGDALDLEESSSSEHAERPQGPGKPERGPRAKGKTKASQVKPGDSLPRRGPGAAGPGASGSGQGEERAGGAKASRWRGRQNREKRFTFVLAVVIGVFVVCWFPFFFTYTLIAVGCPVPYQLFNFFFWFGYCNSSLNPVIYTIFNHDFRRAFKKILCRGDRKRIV
# [2] = target: T2, Alpha-1A adrenergic receptor (Rattus norvegicus, UniProt P43140); assay: Antagonism of the norepinephrine induced contraction of rat isolated prostatic vas deferens.; assay type: functional; conditions: read-out: pA2 (converted)
# T2 sequence (P43140 whole entry): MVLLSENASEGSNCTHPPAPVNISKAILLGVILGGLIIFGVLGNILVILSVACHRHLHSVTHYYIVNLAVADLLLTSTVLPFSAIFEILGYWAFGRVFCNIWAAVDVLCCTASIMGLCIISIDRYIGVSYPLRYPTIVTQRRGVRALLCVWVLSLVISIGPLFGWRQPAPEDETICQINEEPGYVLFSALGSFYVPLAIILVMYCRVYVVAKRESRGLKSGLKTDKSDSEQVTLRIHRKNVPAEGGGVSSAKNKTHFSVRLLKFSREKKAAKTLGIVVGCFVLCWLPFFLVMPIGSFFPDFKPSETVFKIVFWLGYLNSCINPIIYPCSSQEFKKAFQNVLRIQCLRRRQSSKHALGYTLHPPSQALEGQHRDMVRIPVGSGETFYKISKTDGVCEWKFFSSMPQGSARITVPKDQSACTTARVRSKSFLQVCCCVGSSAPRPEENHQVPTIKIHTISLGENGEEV
# [3] = target: T3, Alpha-1B adrenergic receptor (Homo sapiens, UniProt P35368); assay: Binding affinity at human cloned Alpha-1B adrenergic receptor in chinese hamster ovary cells by [3H]prazosin displacement.; assay type: cell-based, CHO
# T3 sequence (P35368 whole entry): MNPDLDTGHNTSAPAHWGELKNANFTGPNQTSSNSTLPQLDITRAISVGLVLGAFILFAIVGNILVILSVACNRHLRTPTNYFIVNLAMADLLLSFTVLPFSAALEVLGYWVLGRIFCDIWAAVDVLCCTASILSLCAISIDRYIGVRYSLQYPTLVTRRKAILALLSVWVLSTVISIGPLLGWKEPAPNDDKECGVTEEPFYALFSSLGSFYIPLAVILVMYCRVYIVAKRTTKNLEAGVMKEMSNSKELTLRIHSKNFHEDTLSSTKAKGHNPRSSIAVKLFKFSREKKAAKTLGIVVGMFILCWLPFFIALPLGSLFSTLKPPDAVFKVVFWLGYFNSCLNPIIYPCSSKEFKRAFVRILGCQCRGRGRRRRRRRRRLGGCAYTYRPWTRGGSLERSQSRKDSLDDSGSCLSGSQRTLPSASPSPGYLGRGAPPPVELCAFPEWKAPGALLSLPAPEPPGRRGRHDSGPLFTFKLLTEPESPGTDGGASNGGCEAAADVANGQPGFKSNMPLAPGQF
# [4] = target: T4, Alpha-1B adrenergic receptor (Rattus norvegicus, UniProt P15823); assay: Antagonism of phenylephrine stimulated contraction of the rat isolated spleen.; assay type: functional, tissue-based; conditions: read-out: pA2 (converted)
# T4 sequence (P15823 whole entry): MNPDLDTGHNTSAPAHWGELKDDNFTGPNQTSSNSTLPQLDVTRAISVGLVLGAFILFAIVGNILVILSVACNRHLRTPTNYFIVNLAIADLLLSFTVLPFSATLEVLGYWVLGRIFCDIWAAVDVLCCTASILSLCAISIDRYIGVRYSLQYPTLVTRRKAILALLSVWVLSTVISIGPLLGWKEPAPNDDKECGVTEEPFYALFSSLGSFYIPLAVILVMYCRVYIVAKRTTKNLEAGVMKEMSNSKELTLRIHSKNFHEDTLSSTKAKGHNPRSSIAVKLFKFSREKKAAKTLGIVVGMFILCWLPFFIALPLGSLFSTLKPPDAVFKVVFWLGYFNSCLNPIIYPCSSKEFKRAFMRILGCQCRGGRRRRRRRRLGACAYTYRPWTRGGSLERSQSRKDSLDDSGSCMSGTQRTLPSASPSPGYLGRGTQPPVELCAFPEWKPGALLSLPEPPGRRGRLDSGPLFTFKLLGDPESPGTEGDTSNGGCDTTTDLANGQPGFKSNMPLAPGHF
# D(2) dopamine receptor = D(2) dopamine receptor (Rattus norvegicus, UniProt P61169); assay: Binding affinity at native Dopamine receptor D2 in rat striatum by [3H]spiperone displacement.; assay type: tissue-based
# Sequence of D(2) dopamine receptor (P61169 whole entry): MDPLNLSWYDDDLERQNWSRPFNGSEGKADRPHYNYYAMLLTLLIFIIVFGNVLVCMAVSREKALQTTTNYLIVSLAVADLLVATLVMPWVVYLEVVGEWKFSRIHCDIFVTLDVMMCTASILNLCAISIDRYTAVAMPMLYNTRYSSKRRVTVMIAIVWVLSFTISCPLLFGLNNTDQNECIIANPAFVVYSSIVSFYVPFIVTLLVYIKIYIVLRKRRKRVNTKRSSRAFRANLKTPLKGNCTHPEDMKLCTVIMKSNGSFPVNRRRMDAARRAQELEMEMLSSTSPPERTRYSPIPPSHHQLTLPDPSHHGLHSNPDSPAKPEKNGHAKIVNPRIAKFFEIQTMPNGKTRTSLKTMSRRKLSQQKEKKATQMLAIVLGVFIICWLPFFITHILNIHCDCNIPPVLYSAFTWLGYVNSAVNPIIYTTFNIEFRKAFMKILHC
compound,measurement,setting,value
COc1cc2nc(N(C)CCCCCCN(C)C(=O)c3cccc(CN(C)C)c3)nc(N)c2cc1OC,Log Ki,[1],-7.72
same,Kb,[2],55 nM
same,Ki,[3],0.166 nM
same,Kb,[4],37.2 nM
same,Ki,D(2) dopamine receptor,1950 nM
